Reference: patent US10780074B2, “Compounds and uses thereof” (Sunovion Pharmaceuticals Inc., priority 2017, dated 2020)
Counter-ions that a name gives are not always drawn.

The molecules below were run on behaviors of compound-treated mice (assay: Neuropharmacological Assay (SmartCube)). Conditions: Mus musculus, ip, 0.25 h, dose having 50% or more total activity in SmartCube, i.p., read-out: MED (minimal effective dose).
Format: in vivo
Outline: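 Mice dosed i.p. 15 min before testing, with compound in N-methyl-2-pyrrolidone/PEG/propylene glycol, were video-recorded and algorithmically compared with reference-drug behavioral signatures. This gave class-match probabilities (antidepressant, anxiolytic, etc.) at the most efficacious of 3 doses. MED was defined as the dose with ≥50% total activity, usually tested across 0.3–30 mpk.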
`CNC[C@@H]1OCCc2c(-c3ccccn3)cccc21` (single isomer, unassigned) [Compound 43, hydrochloride salt] gave a minimal effective dose of 10 to 30 mg/kg. `CNC[C@H]1OCCc2c(-c3ccccn3)cccc21` (single isomer, unassigned) [Compound 44, hydrochloride salt] was tested, and the minimal effective dose was at most 3 mg/kg. `NC[C@@H]1OCCc2c(-c3ccccn3)cccc21` (single isomer, unassigned) [Compound 45, hydrochloride] was tested, and the minimal effective dose was 10 to 30 mg/kg. `NC[C@H]1OCCc2c(-c3ccccn3)cccc21` (single isomer, unassigned) [Compound 46, hydrochloride] gave a minimal effective dose of 10 to 30 mg/kg. Work on `CCNC[C@@H]1OCCc2c(-c3ccncc3)cccc21` (single isomer, unassigned) [Compound 66, hydrochloride salt] yielded a minimal effective dose of 10 to 30 mg/kg. `CCNC[C@H]1OCCc2c(-c3ccncc3)cccc21` (single isomer, unassigned) [Compound 67, hydrochloride salt] showed a minimal effective dose of at most 3 mg/kg. `CNC[C@@H]1OCCc2c(-c3cncs3)cccc21` (single isomer, unassigned) [Compound 68, hydrochloride salt] showed a minimal effective dose of 3 to 10 mg/kg. `CNC[C@H]1OCCc2c(-c3cncs3)cccc21` (single isomer, unassigned) [Compound 69, hydrochloride salt] gave a minimal effective dose of at most 3 mg/kg. With `NC[C@@H]1OCCc2c(-c3cncs3)cccc21` (single isomer, unassigned) [Compound 70, hydrochloride salt] the minimal effective dose was 3 to 10 mg/kg. For `NC[C@H]1OCCc2c(-c3cncs3)cccc21` (single isomer, unassigned) [Compound 71, hydrochloride salt], the minimal effective dose was at most 3 mg/kg. `CNC[C@@H]1OCCc2c(-c3ccncn3)cccc21` (single isomer, unassigned) [Compound 72, hydrochloride salt] gave a minimal effective dose of over 30 mg/kg. With `CNC[C@H]1OCCc2c(-c3ccncn3)cccc21` (single isomer, unassigned) [Compound 73, hydrochloride salt] the minimal effective dose was 3 to 10 mg/kg. `NC[C@@H]1OCCc2c(-c3ccncn3)cccc21` (single isomer, unassigned) [Compound 74, hydrochloride salt] was tested, and the minimal effective dose was over 30 mg/kg.

Same assay, conditions: i.p. 15 min before behavioral test, most efficacious dose(s) of 3 doses
In the case of `CNC[C@@H]1OCCc2c(-c3ccccn3)cccc21` (single isomer, unassigned) [Compound 43, hydrochloride salt], the “AD: ADHD (probability that activity matches class)” value (from here on “AD: ADHD”) is reported as “+ (LOQ ≤ + <5%)”, the “AG: analgesic (probability that activity matches class)” value (shortened to “AG: analgesic”) is reported as “+ (LOQ ≤ + <5%)” and the “AX: anxiolytic (probability that activity matches class)” value (“AX: anxiolytic” for short) is reported as “++ (5% ≤ ++ <25%)”. The “CE: cognitive enhancer (probability that activity matches class)” value (“CE: cognitive enhancer” for short) was “+ (LOQ ≤ + <5%)”, the “DP: anti-depressant (probability that activity matches class)” value (“DP: anti-depressant” for short) was “++ (5% ≤ ++ <25%)” and the “MS: mood stabilizer (probability that activity matches class)” value (from here on “MS: mood stabilizer”) was “+ (LOQ ≤ + <5%)”. The “PS: anti-psychotic (probability that activity matches class)” value (from here on “PS: anti-psychotic”) was “+ (LOQ ≤ + <5%)”, the “SD: sedative hypnotic (probability that activity matches class)” value (“SD: sedative hypnotic” for short) was “+ (LOQ ≤ + <5%)” and the “UN: uncharacterized CNS activity (probability that activity matches class)” value (“UN: uncharacterized CNS activity” below) was “+++ (25% ≤ +++ <50%)”. `CNC[C@H]1OCCc2c(-c3ccccn3)cccc21` (single isomer, unassigned) [Compound 44, hydrochloride salt] was tested, and the “AD: ADHD” value was “+ (LOQ ≤ + <5%)”, the “AG: analgesic” value was “++ (5% ≤ ++ <25%)” and the “AX: anxiolytic” value was “++ (5% ≤ ++ <25%)”. For the same molecule, the “CE: cognitive enhancer” value was “+ (LOQ ≤ + <5%)”, the “DP: anti-depressant” value was “++++ (50% ≤ ++++)” and the “MS: mood stabilizer” value was “+ (LOQ ≤ + <5%)”. For the same molecule, the “PS: anti-psychotic” value was “+ (LOQ ≤ + <5%)”, the “SD: sedative hypnotic” value was “+ (LOQ ≤ + <5%)” and the “UN: uncharacterized CNS activity” value was “+ (LOQ ≤ + <5%)”. For `NC[C@@H]1OCCc2c(-c3ccccn3)cccc21` (single isomer, unassigned) [Compound 45, hydrochloride], the “AD: ADHD” value was “+ (LOQ ≤ + <5%)”, the “AG: analgesic” value was “++ (5% ≤ ++ <25%)” and the “AX: anxiolytic” value was “++ (5% ≤ ++ <25%)”. The “CE: cognitive enhancer” value was “+ (LOQ ≤ + <5%)”, the “DP: anti-depressant” value was “++ (5% ≤ ++ <25%)” and the “MS: mood stabilizer” value was “+ (LOQ ≤ + <5%)”. The “PS: anti-psychotic” value was “+ (LOQ ≤ + <5%)”, the “SD: sedative hypnotic” value was “+ (LOQ ≤ + <5%)” and the “UN: uncharacterized CNS activity” value was “+++ (25% ≤ +++ <50%)”. In the case of `NC[C@H]1OCCc2c(-c3ccccn3)cccc21` (single isomer, unassigned) [Compound 46, hydrochloride], the “AD: ADHD” value is reported as “+ (LOQ ≤ + <5%)”, the “AG: analgesic” value is reported as “+ (LOQ ≤ + <5%)” and the “AX: anxiolytic” value is reported as “++ (5% ≤ ++ <25%)”. The “CE: cognitive enhancer” value was “+ (LOQ ≤ + <5%)”, the “DP: anti-depressant” value was “++ (5% ≤ ++ <25%)” and the “MS: mood stabilizer” value was “+ (LOQ ≤ + <5%)”. For the same molecule, the “PS: anti-psychotic” value was “+ (LOQ ≤ + <5%)”, the “SD: sedative hypnotic” value was “+ (LOQ ≤ + <5%)” and the “UN: uncharacterized CNS activity” value was “++++ (50% ≤ ++++)”. With `CCNC[C@@H]1OCCc2c(-c3ccncc3)cccc21` (single isomer, unassigned) [Compound 66, hydrochloride salt] the “AD: ADHD” value was “+ (LOQ ≤ + <5%)”, the “AG: analgesic” value was “+ (LOQ ≤ + <5%)” and the “AX: anxiolytic” value was “++ (5% ≤ ++ <25%)”. The “CE: cognitive enhancer” value was “+ (LOQ ≤ + <5%)”, the “DP: anti-depressant” value was “++ (5% ≤ ++ <25%)” and the “MS: mood stabilizer” value was “+ (LOQ ≤ + <5%)”. For the same molecule, the “PS: anti-psychotic” value was “+ (LOQ ≤ + <5%)”, the “SD: sedative hypnotic” value was “+ (LOQ ≤ + <5%)” and the “UN: uncharacterized CNS activity” value was “+ (LOQ ≤ + <5%)”. `CCNC[C@H]1OCCc2c(-c3ccncc3)cccc21` (single isomer, unassigned) [Compound 67, hydrochloride salt] was tested, and the “AD: ADHD” value was “+ (LOQ ≤ + <5%)”, the “AG: analgesic” value was “+ (LOQ ≤ + <5%)” and the “AX: anxiolytic” value was “+ (LOQ ≤ + <5%)”. For the same molecule, the “CE: cognitive enhancer” value was “+ (LOQ ≤ + <5%)”, the “DP: anti-depressant” value was “++++ (50% ≤ ++++)” and the “MS: mood stabilizer” value was “+ (LOQ ≤ + <5%)”. The “PS: anti-psychotic” value was “+ (LOQ ≤ + <5%)”, the “SD: sedative hypnotic” value was “+ (LOQ ≤ + <5%)” and the “UN: uncharacterized CNS activity” value was “++ (5% ≤ ++ <25%)”. In the case of `CNC[C@@H]1OCCc2c(-c3cncs3)cccc21` (single isomer, unassigned) [Compound 68, hydrochloride salt], the “AD: ADHD” value is reported as “++ (5% ≤ ++ <25%)”, the “AG: analgesic” value is reported as “+ (LOQ ≤ + <5%)” and the “AX: anxiolytic” value is reported as “++ (5% ≤ ++ <25%)”. For the same molecule, the “CE: cognitive enhancer” value was “+ (LOQ ≤ + <5%)”, the “DP: anti-depressant” value was “++++ (50% ≤ ++++)” and the “MS: mood stabilizer” value was “+ (LOQ ≤ + <5%)”. The “PS: anti-psychotic” value was “+ (LOQ ≤ + <5%)”, the “SD: sedative hypnotic” value was “+ (LOQ ≤ + <5%)” and the “UN: uncharacterized CNS activity” value was “++ (5% ≤ ++ <25%)”. With `CNC[C@H]1OCCc2c(-c3cncs3)cccc21` (single isomer, unassigned) [Compound 69, hydrochloride salt] the “AD: ADHD” value was “+ (LOQ ≤ + <5%)”, the “AG: analgesic” value was “+ (LOQ ≤ + <5%)” and the “AX: anxiolytic” value was “++ (5% ≤ ++ <25%)”. The “CE: cognitive enhancer” value was “+ (LOQ ≤ + <5%)”, the “DP: anti-depressant” value was “++++ (50% ≤ ++++)” and the “MS: mood stabilizer” value was “+ (LOQ ≤ + <5%)”. For the same molecule, the “PS: anti-psychotic” value was “+ (LOQ ≤ + <5%)”, the “SD: sedative hypnotic” value was “++ (5% ≤ ++ <25%)” and the “UN: uncharacterized CNS activity” value was “+ (LOQ ≤ + <5%)”. In the case of `NC[C@@H]1OCCc2c(-c3cncs3)cccc21` (single isomer, unassigned) [Compound 70, hydrochloride salt], the “AD: ADHD” value is reported as “++ (5% ≤ ++ <25%)”, the “AG: analgesic” value is reported as “+ (LOQ ≤ + <5%)” and the “AX: anxiolytic” value is reported as “++ (5% ≤ ++ <25%)”. The “CE: cognitive enhancer” value was “+ (LOQ ≤ + <5%)”, the “DP: anti-depressant” value was “++++ (50% ≤ ++++)” and the “MS: mood stabilizer” value was “+ (LOQ ≤ + <5%)”. The “PS: anti-psychotic” value was “+ (LOQ ≤ + <5%)”, the “SD: sedative hypnotic” value was “+ (LOQ ≤ + <5%)” and the “UN: uncharacterized CNS activity” value was “+++ (25% ≤ +++ <50%)”. `NC[C@H]1OCCc2c(-c3cncs3)cccc21` (single isomer, unassigned) [Compound 71, hydrochloride salt] was tested, and the “AD: ADHD” value was “+++ (25% ≤ +++ <50%)”, the “AG: analgesic” value was “+ (LOQ ≤ + <5%)” and the “AX: anxiolytic” value was “++ (5% ≤ ++ <25%)”. For the same molecule, the “CE: cognitive enhancer” value was “+ (LOQ ≤ + <5%)”, the “DP: anti-depressant” value was “++ (5% ≤ ++ <25%)” and the “MS: mood stabilizer” value was “+ (LOQ ≤ + <5%)”. The “PS: anti-psychotic” value was “+ (LOQ ≤ + <5%)”, the “SD: sedative hypnotic” value was “++ (5% ≤ ++ <25%)” and the “UN: uncharacterized CNS activity” value was “++++ (50% ≤ ++++)”. For `CNC[C@@H]1OCCc2c(-c3ccncn3)cccc21` (single isomer, unassigned) [Compound 72, hydrochloride salt], the “AD: ADHD” value was “+ (LOQ ≤ + <5%)”, the “AG: analgesic” value was “+ (LOQ ≤ + <5%)” and the “AX: anxiolytic” value was “+ (LOQ ≤ + <5%)”. The “CE: cognitive enhancer” value was “+ (LOQ ≤ + <5%)”, the “DP: anti-depressant” value was “+ (LOQ ≤ + <5%)” and the “MS: mood stabilizer” value was “+ (LOQ ≤ + <5%)”. The “PS: anti-psychotic” value was “+ (LOQ ≤ + <5%)”, the “SD: sedative hypnotic” value was “+ (LOQ ≤ + <5%)” and the “UN: uncharacterized CNS activity” value was “+ (LOQ ≤ + <5%)”. For `CNC[C@H]1OCCc2c(-c3ccncn3)cccc21` (single isomer, unassigned) [Compound 73, hydrochloride salt], the “AD: ADHD” value was “+ (LOQ ≤ + <5%)”, the “AG: analgesic” value was “+ (LOQ ≤ + <5%)” and the “AX: anxiolytic” value was “++ (5% ≤ ++ <25%)”. For the same molecule, the “CE: cognitive enhancer” value was “+ (LOQ ≤ + <5%)”, the “DP: anti-depressant” value was “++++ (50% ≤ ++++)” and the “MS: mood stabilizer” value was “+ (LOQ ≤ + <5%)”. The “PS: anti-psychotic” value was “+ (LOQ ≤ + <5%)”, the “SD: sedative hypnotic” value was “+ (LOQ ≤ + <5%)” and the “UN: uncharacterized CNS activity” value was “+ (LOQ ≤ + <5%)”. In the case of `NC[C@@H]1OCCc2c(-c3ccncn3)cccc21` (single isomer, unassigned) [Compound 74, hydrochloride salt], the “AD: ADHD” value is reported as “+ (LOQ ≤ + <5%)”, the “AG: analgesic” value is reported as “+ (LOQ ≤ + <5%)” and the “AX: anxiolytic” value is reported as “+ (LOQ ≤ + <5%)”. For the same molecule, the “CE: cognitive enhancer” value was “+ (LOQ ≤ + <5%)”, the “DP: anti-depressant” value was “++ (5% ≤ ++ <25%)” and the “MS: mood stabilizer” value was “+ (LOQ ≤ + <5%)”. The “PS: anti-psychotic” value was “+ (LOQ ≤ + <5%)”, the “SD: sedative hypnotic” value was “+ (LOQ ≤ + <5%)” and the “UN: uncharacterized CNS activity” value was “+ (LOQ ≤ + <5%)”.
